# Data as given in publication PMC8780855, “Synthesis, Crystallographic, Quantum Chemical, Antitumor, and Molecular Docking/Dynamic Studies of 4-Hydroxycoumarin-Neurotransmitter Derivatives” (International Journal of Molecular Sciences, 2022).
# Read-outs that look alike come from different tables or passages of the source.
# Legend:
# [1] = system: HCT-116 cells; experiment: MTT cytotoxicity assay, HCT-116; assay type: cell-based, human; conditions: for IC50: Homo sapiens, MTT; for Selectivity index HCT-116/MRC-5 24 h: SI between HCT-116 and MRC-5, 24 h; for Selectivity index HCT-116/MRC-5 72 h: SI between HCT-116 and MRC-5, 72 h
# Experimental: (§1) The in vitro cytotoxic activity of the tested compounds was investigated on four model systems: human colorectal carcinoma HCT-116, human breast cancer MDA-MB-231, human cervical cancer HeLa, and human healthy fibroblast MRC-5 cell lines. The cell lines of low passages were purchased from ECACC and were cultivated in Dulbecco’s Modified Eagle Medium (DMEM; Sigma-Aldrich, Germany, D5796) supplemented with 10% fetal bovine serum (Sigma-Aldrich, F4135-500ML) and 1% penicillin/streptomycin (Sigma-Aldrich, P4333-100ML) in 75 cm^2 culture flasks. The cells were harvested in an incubator under a humidified atmosphere with 5% CO2 at a physiological temperature of 37 °C, and after a few passages and a confluence of about 90%, the cells were used for the MTT assay.
# (§2) The capacity of tested compounds to prevent the growth of four different cell lines was assessed by a standardized MTT assay (Laboratory for Bioengineering protocol CB-005, Kragujevac, Serbia), based on spectrophotometric measurement of the reduction of 3-(4,5-dimethylthiazol-2-yl)-2,5-diphenyltetrazolium bromide (MTT, Acros Organics, NJ, USA 158990010) to purple formazan crystals subsequently dissolved in dimethyl sulfoxide (DMSO; Fisher Chemical, IL, USA D/4121/PB15). A number of 1 × 10^4 cells per well (in 96-well microplates) were seeded and maintained in an incubator for 24 h to allow for cell attachment. After the incubation period, the cells were treated with the investigated compounds in the concentration range from 0.1 to 500 µM dissolved in DMEM. Cytotoxic effect was calculated 24 and 72 h from treatment by determination of the number of viable cells. The absorbance measured at 550 nm and was performed on a microplate reader (Rayto 2100C, China). The cytotoxicity was derived as the ratio of the absorbance of the treated cells divided with the absorbance of negative control (untreated cells) and multiplied by 100 to obtain the percentage of the viable cells.
# [2] = system: HeLa cells; experiment: MTT cytotoxicity assay, HeLa; assay type: cell-based, human; conditions: for IC50: Homo sapiens, HeLa, MTT; for Selectivity index HeLa/MRC-5 24 h: SI between HeLa and MRC-5, 24 h; for Selectivity index HeLa/MRC-5 72 h: SI between HeLa and MRC-5, 72 h
# Experimental: as §1, §2
# [3] = system: MRC-5 cells; experiment: MTT cytotoxicity assay, MRC-5 healthy fibroblasts; assay type: cell-based; conditions: Homo sapiens
# Experimental: as §1, §2
# [4] = system: MDA-MB-231 cells; experiment: MTT cytotoxicity assay, MDA-MB-231; assay type: cell-based; conditions: Homo sapiens
# Experimental: as §1, §2
# [5] = read-out: IC50 HCT-116 24 h, HCT-116, 24 h exposure
# [6] = HCT-116, 72 h exposure, read-out: IC50 HCT-116 72 h
# [7] = read-out: IC50 HeLa 24 h, 24 h exposure
# [8] = 72 h exposure, read-out: IC50 HeLa 72 h
# [9] = MRC5, MRC-5, 72 h exposure, read-out: IC50 MRC-5 72 h
# [10] = MRC5, read-out: IC50 MRC-5 24 h, MRC-5, 24 h exposure
# [11] = MDA-MB-231, 72 h exposure, read-out: IC50 MDA-MB-231 72 h
# [12] = read-out: IC50 MDA-MB-231 24 h, MDA-MB-231, 24 h exposure
Compound,"IC50 [1, 5] [µM]","IC50 [1, 6] [µM]",Selectivity index HCT-116/MRC-5 24 h [1],Selectivity index HCT-116/MRC-5 72 h [1],"IC50 [2, 7] [µM]","IC50 [2, 8] [µM]",Selectivity index HeLa/MRC-5 24 h [2],Selectivity index HeLa/MRC-5 72 h [2],"IC50 [3, 9] [µM]","IC50 [3, 10] [µM]","IC50 [4, 11] [µM]","IC50 [4, 12] [µM]"
"C/C(NCCc1ccc(O)cc1)=C1\C(=O)Oc2ccccc2C1=O [L1, (E)-3-(1-((4-hydroxyphenethyl)amino)ethylidene)chromane-2,4-dione]",> 500,170,1,2.9,> 500,452,1,1.1,> 500,> 500,> 500,> 500
"C/C(NCC(O)c1ccc(O)cc1)=C1\C(=O)Oc2ccccc2C1=O (stereo not drawn) [L2, (E)-3-(1-((2-hydroxy-2-(4-hydroxyphenyl)ethyl)amino)ethylidene)chromane-2,4-dione]",> 500,248,1,2.0,> 500,206,1,2.4,> 500,> 500,> 500,> 500
"C/C(NCC(O)c1ccc(O)c(O)c1)=C1\C(=O)Oc2ccccc2C1=O (stereo not drawn) [L3, (E)-3-(1-((2-(3,4-dihydroxyphenyl)-2-hydroxyethyl)amino)ethylidene)chromane-2,4-dione]",> 500,107,1,4.7,> 500,495,1,1,> 500,> 500,> 500,> 500
"COc1cc(CCN/C(C)=C2/C(=O)Oc3ccccc3C2=O)ccc1O [L4, (E)-3-(1-((4-hydroxy-3-methoxyphenethyl)amino)ethylidene)chromane-2,4-dione]",> 500,74,1,6.8,> 500,150,1,3.3,> 500,> 500,> 500,> 500
"CC(NCCc1ccc(O)c(O)c1)=C1C(=O)Oc2ccccc2C1=O [L5, 3-(1-((3,4-dihydroxyphenethyl)amino)ethylidene)-chroman-2,4-dione]",> 500,73,1,6.8,> 500,92,1,5.4,> 500,> 500,> 500,> 500
